{"source": "patent US20130310256A1", "about": "“HERBICIDAL COMPOSITIONS COMPRISING 4-AMINO-3-CHLORO-5-FLUORO-6-(4-CHLORO-2-FLUORO-3-METHOXYPHENYL) PYRIDINE-2-CARBOXYLIC ACID OR A DERIVATIVE THEREOF AND VLCFA AND LIPID SYNTHESIS INHIBITING HERBICIDES” (DOW AGROSCIENCES LLC, priority 2008, published 2013)", "key": {"XANST": {"system": "XANST", "assay": "Example IV: pre-emergence soil-applied weed control, greenhouse", "format": "in vivo, Xanthium strumarium L. (common cocklebur)", "details": "32 gae/ha, 29 DAA", "text": "(§1) Seeds or nutlets of the desired test plant species were planted in a soil matrix prepared by mixing a loam soil (32 percent silt, 23 percent clay, and 45 percent sand, with a pH of about 6.5 and an organic matter content of about 1.9 percent) and calcareous grit in an 80 to 20 ratio. The soil matrix was contained in plastic pots with a volume of 1 quart and a surface area of 83.6 square centimeters (cm^2).\n(§2) Treatments consisted of the benzyl ester of 4-amino-3-chloro-5-fluoro-6-(4-chloro-2-fluoro-3-methoxy-phenyl)pyridine-2-carboxylic acid (compound A) formulated as an SC (suspension concentrate) and various herbicidal components alone and in combination. Forms of compound A were applied on an acid equivalent basis.\n(§3) Other herbicidal components were applied on an active ingredient basis and included very long chain fatty acid (VLCFA) synthesis-inhibiting and fatty acid/lipid synthesis-inhibiting herbicides alachlor (technical grade material), dimethenamid-P formulated as Outlook®, and S-metolachlor formulated as Dual® II Magnum.\n(§4) Treatment requirements were calculated based upon the rates being tested, the concentration of active ingredient or acid equivalent in the formulation, and a 12 mL application volume at a rate of 187 L/ha.\n(§5) For treatments comprised of formulated compounds, measured amounts of compounds were placed individually in 25 mL glass vials and diluted in a volume of 1.25% (v/v) Agri-Dex® crop oil concentrate (COC) to obtain 12× stock solutions. […] Application solutions were prepared by adding an appropriate amount of each stock solution (e.g., 1 mL) and diluted to the appropriate final concentrations with the addition of 10 mL of an aqueous mixture of 1.25% (v/v) COC so that the final spray solutions contained 1.25% (v/v) COC.\nFor treatments comprised of technical compounds, weighed amounts can be placed individually in 25 mL glass vials and dissolved in a volume of 97:3 (v/v) acetone/DMSO to obtain 12× stock solutions. […] Application solutions can be prepared by adding an appropriate amount of each stock solution (e.g., 1 mL) and diluted to the appropriate final concentrations with the addition of 10 mL of an aqueous mixture of 1.5% (v/v) COC so that the final spray solutions contain 1.25% (v/v) COC. […]\nFor treatments comprised of formulated and technical compounds, weighed amounts of the technical materials were placed individually in 25 mL glass vials and dissolved in a volume of 97:3 (v/v) acetone/DMSO to obtain 12× stock solutions, and measured amounts of the formulated compounds were placed individually in 25 mL glass vials and diluted in a volume of 1.5% (v/v) COC or water to obtain 12× stock solutions. […]"}, "ISCRU": {"system": "ISCRU", "assay": "Example I: postemergence foliar-applied weed control, greenhouse", "format": "in vivo, Ischaemum rugosum Salisb. (saramollagrass)", "details": "21 DAA", "text": "Seeds or nutlets of the desired test plant species were planted in a soil matrix prepared by mixing a loam or sandy loam soil (e.g., 28.6 percent silt, 18.8 percent clay, and 52.6 percent sand, with a pH of about 5.8 and an organic matter content of about 1.8 percent) and calcareous grit in an 80 to 20 ratio. The soil matrix was contained in plastic pots with a volume of 1 quart and a surface area of 83.6 square centimeters (cm^2). When required to ensure good germination and healthy plants, a fungicide treatment and/or other chemical or physical treatment was applied. The plants were grown for 8-22 days in a greenhouse with an approximate 14 hr photoperiod which was maintained at about 29° C. during the day and 26° C. during the night. Nutrients (Peters Excel® 15-5-15 5-Ca 2-Mg and iron chelate) were applied in the irrigation solution as needed and water was added on a regular basis. Supplemental lighting was provided with overhead metal halide 1000-Watt lamps as necessary. The plants were employed for testing when they reached the first through fourth true leaf stage.\nTreatments consisted of the acid or esters of 4-amino-3-chloro-5-fluoro-6-(4-chloro-2-fluoro-3-methoxy-phenyl)pyridine-2-carboxylic acid (Compound A), each formulated as an SC (suspension concentrate), and various herbicidal components alone and in combination. Forms of compound A were applied on an acid equivalent basis.\nOther herbicidal components were applied on an active ingredient basis and included very long chain fatty acid (VLCFA) synthesis-inhibiting and fatty acid/lipid synthesis-inhibiting herbicides acetochlor (technical grade material), acetochlor+dichlormid formulated as Topnotch®, pretilachlor (technical grade material), butachlor formulated as Butachlor EC, fentrazamide formulated as Fentrazamide EC, thiobencarb formulated as Bolero® 8EC, cafenstrole formulated as Himeadow® WP or Lapost® Flowable, benfuresate formulated as Full Shot®, dimethenamid-P formulated as Outlook®, indanofan (technical grade material), flufenacet formulated as Define® DF, mefenacet (technical grade material), S-metolachlor formulated as Dual® II Magnum, pethoxamid formulated as Successor® 600, and pyroxasulfone (technical grade material).\nas §4\nFor treatments comprised of formulated compounds, measured amounts of compounds were placed individually in 25 mL glass vials and diluted in a volume of 1.25% (v/v) Agri-Dex® crop oil concentrated to obtain 12× stock solutions. […]"}, "IPOHE": {"system": "IPOHE", "assay": "Example IV: pre-emergence soil-applied weed control, greenhouse", "format": "in vivo, Ipomoea hederacea Jacq. (ivyleaf morningglory)", "text": "as §1, §2, §3, §4, §5\nFor treatments comprised of technical compounds, weighed amounts can be placed individually in 25 mL glass vials and dissolved in a volume of 97:3 (v/v) acetone/DMSO to obtain 12× stock solutions. […] Application solutions can be prepared by adding an appropriate amount of each stock solution (e.g., 1 mL) and diluted to the appropriate final concentrations with the addition of 10 mL of an aqueous mixture of 1.5% (v/v) COC so that the final spray solutions contain 1.25% (v/v) COC. When technical materials are used, the concentrated stock solutions can be added to the spray solutions so that the final acetone and DMSO concentrations of the application solutions are 16.2% and 0.5%, respectively.\nFor treatments comprised of formulated and technical compounds, weighed amounts of the technical materials were placed individually in 25 mL glass vials and dissolved in a volume of 97:3 (v/v) acetone/DMSO to obtain 12× stock solutions, and measured amounts of the formulated compounds were placed individually in 25 mL glass vials and diluted in a volume of 1.5% (v/v) COC or water to obtain 12× stock solutions. […] Application solutions were prepared by adding an appropriate amount of each stock solution (e.g., 1 mL) and diluted to the appropriate final concentrations with the addition of an appropriate amount of an aqueous mixture of 1.5% (v/v) COC so that the final spray solutions contained 1.25% (v/v) COC. As required, additional water and/or 97:3 (v/v) acetone/DMSO was added to individual application solutions so that the final acetone and DMSO concentrations of the application solutions being compared were 8.1% and 0.25%, respectively.\nAll stock solutions and applications solutions were visually inspected for compound compatibility prior to application. Spray solutions were applied to the soil with an overhead Mandel track sprayer equipped with a 8002E nozzles calibrated to deliver 187 L/ha over an application area of 0.503 m^2 at a spray height of 18 inches (46 cm) above average pot height. Control pots were sprayed in the same manner with the solvent blank.\nThe treated and control pots were placed in a greenhouse and top watered as needed. […]"}}, "data": [{"compound": "COc1c(Cl)ccc(-c2nc(C(=O)OCc3ccccc3)c(Cl)c(N)c2F)c1F", "note": "[Compound A Benzyl Ester, benzyl ester of 4-amino-3-chloro-5-fluoro-6-(4-chloro-2-fluoro-3-methoxy-phenyl)pyridine-2-carboxylic acid]", "values": [{"measurement": "Visual Weed Control XANST Obs", "setting": "XANST", "result": 5, "unit": "%"}, {"measurement": "Visual Weed Control Obs", "setting": "ISCRU; 8 gae/ha", "result": 20, "unit": "%"}, {"measurement": "Visual Weed Control Obs", "setting": "ISCRU; 16 gae/ha", "result": 0, "unit": "%"}, {"measurement": "Visual Weed Control IPOHE Obs", "setting": "IPOHE; 16 gae/ha, 28 DAA", "result": 13, "unit": "%"}, {"measurement": "Visual Weed Control IPOHE Obs", "setting": "IPOHE; 32 gae/ha, 27 DAA", "result": 28, "unit": "%"}, {"measurement": "Visual Weed Control IPOHE Obs", "setting": "IPOHE; 32 gae/ha, 28 DAA", "result": 23, "unit": "%"}]}]}
